Measurements: patent publication US20070197560A1, “cGMP PDE 5 inhibitors for inhalation in the treatment of sexual dysfunction” (priority 1998, published 2007)

Experiments:
in vivo = conditions: male, Wistar:Han, rat, inhaled or intranasal, 2.1 umol/kg
Description: (§1) A calculated nominal dose of 8.4 μmol/kg is administered to each of 3 male Wistar:Han rats by administration directly into the trachea via the mouth and vocal chords from a Penn-Century dry powder delivery device actuated via a 2 ml syringe containing air as a propellent.
(§2) A calculated nominal dose of 2.1 μmol/kg is administered to each of 4 male Wistar:Han rats by administration directly into the trachea via the mouth and vocal chords from a Penn-Century dry powder delivery device actuated via a 2 ml syringe containing air as a propellent.
(§3) Each of 3 animals receives a dose equivalent to 2.1 μmol/kg.

[1] = rodent pharmacokinetic model simulating inhalation: intratracheal dry powder blend with lactose; conditions: rat
Description: as §1, §2, §3

[2] = parameters: species or system Male Wistar:Han rats; conditions: rat, in vivo, inhaled or intranasal, 2.1 umol/kg, pH 6
Description: Male Wistar:Han rats used for this model are supplied by Harlan UK Ltd at 105 days of age and approximately 350 g weight. They are fed ad libitum with a standard laboratory diet and housed under controlled conditions (12 hours light/dark cycle; 20° C.) for at least one week prior to the experiment.
Compound A is dissolved, at a concentration of 1.75 mg/ml in 0.9% saline which has been acidified with 1M aqueous HCI (5 μl), giving a clear solution of pH 5.0. To the solution is added 1M aqueous NaOH (2μl) to increase the pH to 6.0, resulting in a very fine suspension. […] Each animal receives a 2.1 μmol/kg dose in 200 μl of suspension.
The following surgical procedure is used to prepare the animals for the experiment: the animals are anaesthetised, initially with 4% halothane, maintained with 2% halothane, both in a 1:1 oxygen: nitrous oxide mixture carrier. The anaesthetised animals are shaved on their ventral neck and craniodorsal back, then swabbed with a solution of 5% Hibitane in a 70% solution of ethanol in water. […] The patency of the cannula is assessed immediately before experimentation. […]
Withdrawn blood samples are analysed as follows: […]

## CCOc1cnccc1-c1nc2n(C3CCCC3)[nH]c(CC)c-2c(=O)n1 [Compound C, 1-cyclopentyl-3-ethyl-6-(3-ethoxy-4-pyridyl)-pyrazolo[3,4-d]pyrimidin-4-one]
In vivo
  Tmax: 2 to 20 min

## CCCc1nn(C)c2c(=O)[nH]c(-c3cc(S(=O)(=O)N4CCN(C)CC4)ccc3OCC)nc12 [Compound A, 5-[2-ethoxy-5-(4-methylpiperazinylsulfonyl)phenyl]-1-methyl-3-n-propyl-1,6-dihydro-7H-pyrazolo[4,3-d]pyrimidin-7-one]
[1]; citrate salt micronised to less than 5 μM, diluted by weight to 40% in lactose, nominal dose 8.4 μmol/kg, 3 rats
  time to peak plasma concentration (absorption time Tmax): 2 min
[2]
  Tmax (absorption time; time to maximum concentration in plasma): 5 min

## CCCOc1ccc(NS(C)(=O)=O)cc1-c1nc2c(c(C)nn2C)c(=O)[nH]1 [Compound D, 1,3-dimethyl-6-(2-propoxy-5-methanesulfonylamidophenyl)-1,5-dihydropyrazolo[3,4-d]pyrimidin-4-one]
[1]; 6% blend with lactose, 2.1 μmol/kg
  absorption time T max: 10 min
